Patent publication US20130109721A1, “FAAH Inhibitors” (Ironwood Pharmaceuticals, Inc., priority 2009, published 2013)

Target: T1, FAAH (Homo sapiens, UniProt O00519)
T1 construct: FAAH activity was assayed in the respective homogenates described herein (Rat brain, Mouse brain or Human brain); tissue Analytical Biological Services (ABS), Inc; host or cells: human brain cortex membrane homogenate
T1 sequence (O00519 1-579): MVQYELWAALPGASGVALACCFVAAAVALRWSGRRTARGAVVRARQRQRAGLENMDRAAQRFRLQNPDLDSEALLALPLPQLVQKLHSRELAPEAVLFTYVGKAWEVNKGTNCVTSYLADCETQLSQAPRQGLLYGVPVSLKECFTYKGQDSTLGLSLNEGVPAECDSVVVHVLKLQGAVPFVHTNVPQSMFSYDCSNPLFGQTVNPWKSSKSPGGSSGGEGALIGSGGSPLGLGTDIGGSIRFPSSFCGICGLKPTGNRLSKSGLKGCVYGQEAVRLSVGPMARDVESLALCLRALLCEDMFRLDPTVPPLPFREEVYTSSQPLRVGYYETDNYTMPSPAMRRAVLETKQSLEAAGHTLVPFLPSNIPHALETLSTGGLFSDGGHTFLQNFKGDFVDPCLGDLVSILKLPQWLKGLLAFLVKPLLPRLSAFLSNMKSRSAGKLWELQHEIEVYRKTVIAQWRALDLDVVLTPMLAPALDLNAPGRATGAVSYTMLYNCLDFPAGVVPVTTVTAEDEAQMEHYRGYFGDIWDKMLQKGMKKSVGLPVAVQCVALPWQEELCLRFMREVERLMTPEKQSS
Experiment: FAAH inhibition, human brain membrane homogenate assay
Format: biochemical
Conditions: average; FAAH extracted from human brain homogenate; read-out: Human brain FAAH Extract IC50
Description: About 10 g of frozen normal human brain cortex tissue was obtained (e.g., from Analytical Biological Services (ABS), Inc. (Wilmington, Del.)). The brain tissue was thawed and transferred to a large ceramic mortar on ice. 50 mL of ice-cold “homogenization buffer” (20 mM HEPES buffer, pH 7.0, with 1 mM MgCl2) was added to the mortar and the tissue was homogenized with a pestle. The homogenate was centrifuged at 36,500 g for 20 minutes at 4° C. The supernatants were discarded and the pellets were re-suspended in homogenization buffer and centrifuged as before. The supernatants were again discarded and the pellets were re-suspended in 30 mL homogenization buffer and incubated in a 37° C. water bath for 20 minutes. The homogenate was then centrifuged as before. The supernatant was discarded and the membrane pellets were re-suspended in 30 mL “resuspension buffer” (50 mM Tris-HCl buffer, pH 7.4, containing 1 mM EDTA and 3 mM MgCl2). A Bradford Protein assay was performed to determine protein concentration. The protein was aliquotted into screw cap Cryo tubes each containing ˜200 μL, flash frozen in liquid nitrogen and stored at −80° C. until used for the assay.
FAAH activity was assayed in the respective homogenates described herein (Rat brain, Mouse brain or Human brain) for certain exemplary substrate compounds using a modification of the method of Omeir et al. (1995 Life Sci 56:1999) and Fowler et al. (1997 J. Pharmacol Exp Ther 283:729). For assay of FAAH activity in rat brain membrane (RBM) homogenates, RBM homogenates (7 μg protein in 20 μL final volume of 10 mM Tris pH 6.5) were mixed with 180 μL of a mixture of the following: 2.0 μM unlabelled anandamide, 0.03 μCi radio labeled anandamide [ethanolamine 1-^3H] (40-60 Cis/mmol, product number ART-626, American Radiolabeled Chemicals, St. Louis, Mo.), 1 mg/mL Bovine Serum Albumin (fatty acid-free BSA, electrophoresis grade, Sigma, St. Louis, Mo.), 10 mM Tris-HCl (pH 6.5), and 1 mM EDTA in the presence and absence of test compounds (vehicle was DMSO at a final concentration of 1%) and incubated for 10 minutes at 37° C. Samples were placed on ice to terminate the reactions.
^3H-ethanolamine product and un-reacted ^3H-anandamide substrate were then separated either: (1) by using chloroform/methanol extraction or (2) by passing the reaction mixture through a glass fiber filter containing activated charcoal. Samples were extracted with chloroform/methanol by adding 0.4 mL of chloroform/methanol (1:1 v/v), vigorously mixing the samples, and separating the aqueous and organic phases by centrifugation. Radioactivity (corresponding to FAAH-catalyzed breakdown of ^3H-anandamide) found in aliquots (0.2 mL) of the aqueous phase was determined by liquid scintillation counting with quench correction. IC50 values were determined as described by Jonsson et al. (2001 Br. J. Pharmacol. 133:1263). Alternatively, reactions were purified using a modification of the solid-phase extraction method described by Wilson et al (2003 Anal. Biochem. 318:270). This method was modified as follows: after reactions were incubated at 37° C. for 10 minutes and chilled on ice, the reaction mixtures were acidified by adding 10 μL of sodium phosphate solution [0.5M (pH 2.0)]. Next, 90 μL aliquots of the acidified reaction mixtures were applied to activated charcoal (that had been previously washed with methanol as described by Wilson et al. (supra)) containing 80 μL of water on top of a glass fiber filter, centrifuged, and the radioactivity in the eluate was counted as described previously by Wilson et al. (supra).
Table 1 provides activity data for certain compounds tested for inhibition of FAAH using the FAAH rat, mouse and human brain homogenate assays. […]

COc1cc(NC(=O)C(=O)c2cc(C)n(Cc3ccc(Cl)cc3)c2C)ccn1 [Compound I-01, 2-(1-(4-chlorobenzyl)-2,5-dimethyl-1H-pyrrol-3-yl)-N-(2-methoxypyridin-4-yl)-2-oxoacetamide]
IC50: 542 nM

Cc1c(C(=O)C(=O)Nc2ccncc2)c2cc(Cl)sc2n1Cc1ccc(Cl)cc1 [Compound I-02, 2-(2-chloro-6-(4-chlorobenzyl)-5-methyl-6H-thieno[2,3-b]pyrrol-4-yl)-2-oxo-N-(pyridin-4-yl)acetamide]
IC50: 97 nM

COc1cc(NC(=O)C(=O)c2c(C)n(Cc3ccc(Cl)cc3)c3sc(Cl)cc23)ccn1 [Compound I-03, 2-(2-chloro-6-(4-chlorobenzyl)-5-methyl-6H-thieno[2,3-b]pyrrol-4-yl)-N-(2-methoxypyridin-4-yl)-2-oxoacetamide]
IC50: 94 nM

Cc1cc2c(s1)c(C(=O)C(=O)Nc1ccncc1)c(C)n2Cc1ccc(Cl)cc1 [Compound I-04, 2-(4-(4-chlorobenzyl)-2,5-dimethyl-4H-thieno[3,2-b]pyrrol-6-yl)-2-oxo-N-(pyridin-4-yl)acetamide]
IC50: 51 nM

COc1cc(NC(=O)C(=O)c2c(C)n(Cc3ccc(Cl)cc3)c3cc(C)sc23)ccn1 [Compound I-05, 2-(4-(4-chlorobenzyl)-2,5-dimethyl-4H-thieno[3,2-b]pyrrol-6-yl)-N-(2-methoxypyridin-4-yl)-2-oxoacetamide]
IC50: 4 nM

Cc1c(C(=O)C(=O)Nc2cccc(Cl)c2)c2sccc2n1Cc1ccc(Cl)cc1 [Compound I-06, 2-(4-(4-chlorobenzyl)-5-methyl-4H-thieno[3,2-b]pyrrol-6-yl)-N-(3-chlorophenyl)-2-oxoacetamide]
IC50: 1500 nM

COc1cc(NC(=O)C(=O)c2c(C)n(Cc3ccc(Cl)cc3)c3ccsc23)ccn1 [Compound I-07, 2-(4-(4-chlorobenzyl)-5-methyl-4H-thieno[3,2-b]pyrrol-6-yl)-N-(2-methoxypyridin-4-yl)-2-oxoacetamide]
IC50: 18 nM

COc1cc(NC(=O)C(=O)c2cc(C)n(Cc3ccc(F)cc3)c2C)ccn1 [Compound I-17, 2-(1-(4-fluorobenzyl)-2,5-dimethyl-1H-pyrrol-3-yl)-N-(2-methoxypyridin-4-yl)-2-oxoacetamide]
IC50: 1220 nM

COc1cc(NC(=O)C(=O)c2cc(-c3ccccc3)n(Cc3ccc(Cl)cc3)c2C)ccn1 [Compound I-27, 2-(1-(4-chlorobenzyl)-2-methyl-5-phenyl-1H-pyrrol-3-yl)-N-(2-methoxypyridin-4-yl)-2-oxoacetamide]
IC50: > 50000 nM

Cc1cc(C(=O)C(=O)Nc2ccnc(Cl)c2)c(C)n1Cc1ccc(Cl)cc1 [Compound I-28, 2-(1-(4-chlorobenzyl)-2,5-dimethyl-1H-pyrrol-3-yl)-N-(2-chloropyridin-4-yl)-2-oxoacetamide]
IC50: 897 nM

Cc1cc(C(=O)C(=O)Nc2ccncc2)c(C)n1Cc1ccc(Cl)cc1 [Compound I-30, 2-(1-(4-chlorobenzyl)-2,5-dimethyl-1H-pyrrol-3-yl)-2-oxo-N-(pyridin-4-yl)acetamide]
IC50: 3400 nM

Cc1cc(C(=O)C(=O)Nc2cccnc2)c(C)n1Cc1ccc(Cl)cc1 [Compound I-31, 2-(1-(4-chlorobenzyl)-2,5-dimethyl-1H-pyrrol-3-yl)-2-oxo-N-(pyridin-3-yl)acetamide]
IC50: 3200 nM

Cc1cc(C(=O)C(=O)Nc2ccccc2)c(C)n1Cc1ccc(Cl)cc1 [Compound I-32, 2-(1-(4-chlorobenzyl)-2,5-dimethyl-1H-pyrrol-3-yl)-2-oxo-N-phenylacetamide]
IC50: > 5000 nM
